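How tested: cells in 96-well plates exposed to compound for 48 hours at five concentrations. GI50 is the concentration that inhibits growth by half.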 Activity calls are given as the source filed them. Cut-off read from the data, not from the text of the source: active = GI50 up to about 1.1 µM and inactive = higher.
Columns and labels:
Assay in all cases: NCI anticancer screen, dose series, 48 h
A498 = system: A498
DU-145 = system: DU-145
HCT-15 = system: HCT-15
HOP-92 = system: HOP-92
K562 = system: K562
KM12 = system: KM12
LOX IMVI = system: LOX IMVI
M14 = system: M14
MCF7 = system: MCF7
MDA-MB-231 = system: MDA-MB-231
MOLT-4 = system: MOLT-4
NCI-H23 = system: NCI-H23
NCI-H522 = system: NCI-H522
NCI/ADR-RES = system: NCI/ADR-RES
SR = system: SR
T47D = system: T47D
A549 = system: A549
Malme-3M = system: Malme-3M
UACC-62 = system: UACC-62
SN12C = system: SN12C

Structure (SMILES) | GI50 (A498) | GI50 (DU-145) | GI50 (HCT-15) [µM] | GI50 (HOP-92) | GI50 (K562) | GI50 (KM12) | GI50 (LOX IMVI) | GI50 (M14) | GI50 (MCF7) | GI50 (MDA-MB-231) | GI50 (MOLT-4) | GI50 (NCI-H23) | GI50 (NCI-H522) | GI50 (NCI/ADR-RES) | GI50 (SR) | GI50 (T47D) | GI50 (A549) | GI50 (Malme-3M) | GI50 (UACC-62) | GI50 (SN12C)
COc1ccc(/C=C2\Sc3nnc(-c4ccccc4)n3N=C2c2cc(F)c(Cl)cc2Cl)cc1OC | > 100 µM (inactive) | > 100 µM (inactive) | 19.1 | 37 µM (inactive) | 9.86 µM (inactive) | 26.7 µM (inactive) | > 100 µM (inactive) | 29.3 µM (inactive) | 19.8 µM (inactive) | 59.2 µM (inactive) | 0.948 µM (active) | 51.2 µM (inactive) | 12.6 µM (inactive) | 33.1 µM (inactive) | 2.14 µM (inactive) | 29.6 µM (inactive) |  |  |  | 
Cc1ccc(C(=O)/C=C(\O)C(=O)NN=C(c2ccccc2)c2ccccc2)cc1 | > 100 µM (inactive) | > 100 µM (inactive) | 39 | 28 µM (inactive) | 17.3 µM (inactive) | 77.4 µM (inactive) | 12.2 µM (inactive) | > 100 µM (inactive) | 54.6 µM (inactive) | > 100 µM (inactive) | 58.9 µM (inactive) | > 100 µM (inactive) |  | 30.5 µM (inactive) | 27.2 µM (inactive) | > 100 µM (inactive) | 41.2 µM (inactive) | > 100 µM (inactive) | 68.9 µM (inactive) | 
Cc1ccc(/C=N/Nc2ccccn2)s1 | > 100 µM (inactive) | > 100 µM (inactive) | > 72.6 | > 100 µM (inactive) |  | > 100 µM (inactive) | > 50.4 µM (inactive) | > 100 µM (inactive) | 21.1 µM (inactive) | > 41.1 µM (inactive) | > 100 µM (inactive) | > 100 µM (inactive) | 12.5 µM (inactive) | > 40.6 µM (inactive) | > 100 µM (inactive) | > 57 µM (inactive) | > 100 µM (inactive) | > 100 µM (inactive) | > 100 µM (inactive) | > 47.4 µM (inactive)
CCOc1cc(C2SCC(=O)N2c2ccc3c(c2)Oc2c(Cl)c4c(c(Cl)c2=N3)Oc2cc(N3C(=O)CSC3c3ccc(O)c(OCC)c3)ccc2N=4)ccc1O (stereo not drawn) | 58.5 µM (inactive) | 29.9 µM (inactive) | 43.1 | 24.5 µM (inactive) | 27 µM (inactive) | 40.9 µM (inactive) | 35.2 µM (inactive) | 27.2 µM (inactive) | 33.3 µM (inactive) | 34.1 µM (inactive) | 2.25 µM (inactive) | 21 µM (inactive) | 34 µM (inactive) | 39 µM (inactive) | 2.08 µM (inactive) | 11 µM (inactive) | 23.8 µM (inactive) |  |  | 
O=C1CC(=O)NC(NN2C(=O)CSC2c2ccccc2)=N1 (stereo not drawn) | > 100 µM (inactive) | > 100 µM (inactive) | > 100 | 55.8 µM (inactive) | > 100 µM (inactive) | > 100 µM (inactive) |  | > 100 µM (inactive) | > 100 µM (inactive) | > 100 µM (inactive) | > 100 µM (inactive) | > 100 µM (inactive) | > 100 µM (inactive) | > 100 µM (inactive) | > 100 µM (inactive) | > 100 µM (inactive) | > 100 µM (inactive) | > 100 µM (inactive) | > 100 µM (inactive) | > 100 µM (inactive)
O=c1cc(O)c2ccccc2o1 [4-HYDROXYCOUMARINS] | > 100 µM (inactive) | > 100 µM (inactive) |  | > 100 µM (inactive) | > 100 µM (inactive) | > 100 µM (inactive) | > 100 µM (inactive) | > 100 µM (inactive) | > 100 µM (inactive) | > 100 µM (inactive) | > 100 µM (inactive) | > 100 µM (inactive) | > 100 µM (inactive) | > 100 µM (inactive) | > 100 µM (inactive) | > 100 µM (inactive) | > 100 µM (inactive) | > 100 µM (inactive) | > 100 µM (inactive) | > 100 µM (inactive)

From ChEMBL document CHEMBL1201862, “PubChem BioAssay data set” (2004)
